# How the values were obtained:
# [1] = Solubility test (dissolution method); settings: for Solubility (dissolution method) Water: mixed at 1%, 3%, 5%, 10%, 20% or more
# Excerpt: The solubility evaluation by the dissolution method requires complicated operations and a large amount of test sample. Therefore, this test is not suitable for screening. However, the solubility of each compound can be more accurately evaluated.
# [2] = Adhesion of cured material to PET film (cross-cut method, JIS K 5600-5-6); settings: UV-cured film on surface-untreated PET film, cross-cut 10×10
# Experimental: Each compound shown in Table 11 was formed into a UV-cured film on a PET film in the same manner as in the pencil hardness test, except that the PET film used as a substrate was a surface-untreated polyethylene terephthalate (PET) film (Lumirror L-50T60, produced by Toray Industries, Inc.).
# The adhesion of the UV-cured film to the PET film was evaluated based on JIS K 5600-5-6 (cross-cut method). The number of divided segments was 10×10 segments=100 segments. The adhesion was evaluated by the number of the segments which remain without peeling or damage in 100 segments.
# [3] = Solubility test (film-forming method); settings: for Solubility (film-forming method) Water: solvent dropped on film on glass plate
# Experimental: Each compound was applied on a glass plate and the glass plate was leaned against the wall. Each solvent shown in Table 5 was dropped (5 to 6 drops) on the glass plate with a pasteur pipette. The glass plate was visually observed after the dropped solvent was dried, the surface was optionally rubbed with a spatula, and the solubility (film-forming method) was evaluated according to the criteria shown in Table 4.
smiles,measurement,setting,value
"C=CC(=O)OCC(C)(C)COC(=O)C=C [NPGDA, reference compound]",Solubility (dissolution method) Acetone,[1],◯◯ (Become uniform and transparent at a compound concentration of 20% or more)
same,Solubility (dissolution method) Acetonitrile,[1],◯◯ (Become uniform and transparent at a compound concentration of 20% or more)
same,Solubility (dissolution method) Ethyl acetate,[1],◯◯ (Become uniform and transparent at a compound concentration of 20% or more)
same,Solubility (dissolution method) Methanol,[1],◯◯ (Become uniform and transparent at a compound concentration of 20% or more)
same,Solubility (dissolution method) THF,[1],◯◯ (Become uniform and transparent at a compound concentration of 20% or more)
same,Solubility (dissolution method) Toluene,[1],◯◯ (Become uniform and transparent at a compound concentration of 20% or more)
same,Solubility (dissolution method) Water,[1],X (Not become uniform and transparent even at a compound concentration of 1%)
same,Adhesion (segments remaining without peeling or damage in 100 segments),[2],49/100
C=CCOCC(=C)C(=O)[O-].C=CCOCC(=C)C(=O)[O-].C=CCOCC(=C)C(=O)[O-].[La+3] [La(AMA)3],Solubility (film-forming method) Water,[3],X-Δ
same,Solubility (dissolution method) THF,[1],◯◯ (Become uniform and transparent at a compound concentration of 20% or more)
same,Solubility (dissolution method) Toluene,[1],◯ (Become uniform and transparent at a compound concentration of 10%)
C=CCOCC(=C)C(=O)[O-].C=CCOCC(=C)C(=O)[O-].[CH3][Sn+2][CH3] [(CH3)2Sn(AMA)2],Solubility (dissolution method) Toluene,[1],◯◯ (Become uniform and transparent at a compound concentration of 20% or more)
C=C(C)C(=O)[O-].C=CCOCC(=C)C(=O)[O-].[Ni+2] [Ni(AMA)1(MAA)1],Solubility (dissolution method) Toluene,[1],◯◯ (Become uniform and transparent at a compound concentration of 20% or more)
C=CCOCC(=C)C(=O)[O-].C=CCOCC(=C)C(=O)[O-].C=CCOCC(=C)C(=O)[O-].[Cr+3] [Cr(AMA)3],Solubility (film-forming method) Methanol,[3],X-Δ
same,Solubility (dissolution method) Toluene,[1],◯◯ (Become uniform and transparent at a compound concentration of 20% or more)
C=CCOCC(=C)C(=O)[O-].C=CCOCC(=C)C(=O)[O-].C=CCOCC(=C)C(=O)[O-].[Al+3] [Al(AMA)3],Adhesion (segments remaining without peeling or damage in 100 segments),[2],100/100
C=C(C)C(=O)[O-].C=CCOCC(=C)C(=O)[O-].[CH3][Sn+2][CH3] [(CH3)2Sn(AMA)1(MAA)1],Solubility (dissolution method) Toluene,[1],◯◯ (Become uniform and transparent at a compound concentration of 20% or more)
C=CCOCC(=C)C(=O)[O-].C=CCOCC(=C)C(=O)[O-].C=CCOCC(=C)C(=O)[O-].[Fe+3] [Fe(AMA)3],Solubility (film-forming method) Water,[3],X-Δ
same,Solubility (dissolution method) Toluene,[1],◯◯ (Become uniform and transparent at a compound concentration of 20% or more)
C=CCOCC(=C)C(=O)[O-].C=CCOCC(=C)C(=O)[O-].C=CCOCC(=C)C(=O)[O-].[Er+3] [Er(AMA)3],Solubility (film-forming method) Water,[3],X-Δ
same,Solubility (dissolution method) THF,[1],◯◯ (Become uniform and transparent at a compound concentration of 20% or more)
same,Solubility (dissolution method) Toluene,[1],◯ (Become uniform and transparent at a compound concentration of 10%)
C=CCOCC(=C)C(=O)[O-].C=CCOCC(=C)C(=O)[O-].[Co+2] [Co(AMA)2],Solubility (film-forming method) Acetonitrile,[3],X-Δ
same,Solubility (film-forming method) Methanol,[3],X-Δ
same,Solubility (dissolution method) Toluene,[1],◯◯ (Become uniform and transparent at a compound concentration of 20% or more)
C=CCOCC(=C)C(=O)[O-].C=CCOCC(=C)C(=O)[O-].CC(C)[O][Ti+2][O]C(C)C [(i-C3H7O)2Ti(AMA)2],Solubility (film-forming method) Acetone,[3],X-Δ
same,Solubility (film-forming method) Acetonitrile,[3],X-Δ
same,Solubility (film-forming method) Ethyl acetate,[3],X-Δ
same,Solubility (film-forming method) Methanol,[3],X-Δ
same,Solubility (film-forming method) THF,[3],X-Δ
same,Solubility (film-forming method) Toluene,[3],X-Δ
same,Solubility (dissolution method) Acetone,[1],◯◯ (Become uniform and transparent at a compound concentration of 20% or more)
same,Solubility (dissolution method) Acetonitrile,[1],◯◯ (Become uniform and transparent at a compound concentration of 20% or more)
same,Solubility (dissolution method) Ethyl acetate,[1],◯◯ (Become uniform and transparent at a compound concentration of 20% or more)
same,Solubility (dissolution method) Methanol,[1],◯◯ (Become uniform and transparent at a compound concentration of 20% or more)
same,Solubility (dissolution method) THF,[1],◯◯ (Become uniform and transparent at a compound concentration of 20% or more)
same,Solubility (dissolution method) Toluene,[1],◯◯ (Become uniform and transparent at a compound concentration of 20% or more)
same,Solubility (dissolution method) Water,[1],X (Not become uniform and transparent even at a compound concentration of 1%)
C=CCOCC(=C)C(=O)[O-].C=CCOCC(=C)C(=O)[O-].C=CCOCC(=C)C(=O)[O-].[Au+3] [Au(AMA)3],Solubility (film-forming method) Toluene,[3],X-Δ
C=CCOCC(=C)C(=O)[O-].C=CCOCC(=C)C(=O)[O-].C=CCOCC(=C)C(=O)[O-].[Eu+3] [Eu(AMA)3],Solubility (dissolution method) THF,[1],◯◯ (Become uniform and transparent at a compound concentration of 20% or more)
same,Solubility (dissolution method) Toluene,[1],◯ (Become uniform and transparent at a compound concentration of 10%)
"C=CC(=O)OCC(CC)(COC(=O)C=C)COC(=O)C=C [TMPTA, reference compound]",Solubility (dissolution method) Acetone,[1],◯◯ (Become uniform and transparent at a compound concentration of 20% or more)
same,Solubility (dissolution method) Acetonitrile,[1],◯◯ (Become uniform and transparent at a compound concentration of 20% or more)
same,Solubility (dissolution method) Ethyl acetate,[1],◯◯ (Become uniform and transparent at a compound concentration of 20% or more)
same,Solubility (dissolution method) Methanol,[1],◯◯ (Become uniform and transparent at a compound concentration of 20% or more)
same,Solubility (dissolution method) THF,[1],◯◯ (Become uniform and transparent at a compound concentration of 20% or more)
same,Solubility (dissolution method) Toluene,[1],◯◯ (Become uniform and transparent at a compound concentration of 20% or more)
same,Solubility (dissolution method) Water,[1],X (Not become uniform and transparent even at a compound concentration of 1%)
same,Adhesion (segments remaining without peeling or damage in 100 segments),[2],71/100
C=CCOCC(=C)C(=O)[O-].C=CCOCC(=C)C(=O)[O-].C=CCOCC(=C)C(=O)[O-].[In+3] [In(AMA)3],Solubility (film-forming method) Acetone,[3],X-Δ
same,Solubility (film-forming method) Acetonitrile,[3],X-Δ
same,Solubility (film-forming method) Ethyl acetate,[3],X-Δ
same,Solubility (film-forming method) Methanol,[3],X-Δ
same,Solubility (dissolution method) THF,[1],◯◯ (Become uniform and transparent at a compound concentration of 20% or more)
C=CCOCC(=C)C(=O)[O-].C=CCOCC(=C)C(=O)[O-].C=CCOCC(=C)C(=O)[O-].[Bi+3] [Bi(AMA)3],Solubility (film-forming method) Water,[3],X-Δ
"C=CCOCC(=C)C(=O)OCCOCCOC(=O)C(=C)COCC=C [DEG-AMA, diethylene glycol di(α-allyloxymethyl acrylate), reference compound]",Solubility (dissolution method) Acetone,[1],◯◯ (Become uniform and transparent at a compound concentration of 20% or more)
same,Solubility (dissolution method) Acetonitrile,[1],◯◯ (Become uniform and transparent at a compound concentration of 20% or more)
same,Solubility (dissolution method) Ethyl acetate,[1],◯◯ (Become uniform and transparent at a compound concentration of 20% or more)
same,Solubility (dissolution method) Methanol,[1],◯◯ (Become uniform and transparent at a compound concentration of 20% or more)
same,Solubility (dissolution method) THF,[1],◯◯ (Become uniform and transparent at a compound concentration of 20% or more)
same,Solubility (dissolution method) Toluene,[1],◯◯ (Become uniform and transparent at a compound concentration of 20% or more)
same,Solubility (dissolution method) Water,[1],X (Not become uniform and transparent even at a compound concentration of 1%)
same,Adhesion (segments remaining without peeling or damage in 100 segments),[2],85/100
C=CCOCC(=C)C(=O)[O-].C=CCOCC(=C)C(=O)[O-].[Cu+2] [Cu(AMA)2],Solubility (dissolution method) THF,[1],◯◯ (Become uniform and transparent at a compound concentration of 20% or more)
C=C(C)COCC(=C)C(=O)[O-].C=C(C)COCC(=C)C(=O)[O-].[Zn+2] [Zn(MAMA)2],Solubility (film-forming method) Water,[3],X-Δ
same,Solubility (dissolution method) Toluene,[1],◯◯ (Become uniform and transparent at a compound concentration of 20% or more)
C=C(C)C(=O)[O-].C=CCOCC(=C)C(=O)[O-].C=CCOCC(=C)C(=O)[O-].[In+3] [In(AMA)2(MAA)1],Solubility (film-forming method) Methanol,[3],X-Δ
same,Solubility (dissolution method) Toluene,[1],◯◯ (Become uniform and transparent at a compound concentration of 20% or more)
C=CCOCC(=C)C(=O)[O-].C=CCOCC(=C)C(=O)[O-].[Mn+2] [Mn(AMA)2],Solubility (film-forming method) Water,[3],X-Δ
same,Solubility (dissolution method) Toluene,[1],◯◯ (Become uniform and transparent at a compound concentration of 20% or more)
C=CCOCC(=C)C(=O)[O-].C=CCOCC(=C)C(=O)[O-].CCC[O][Zr+2][O]CCC [(n-C3H7O)2Zr(AMA)2],Solubility (film-forming method) Acetone,[3],X-Δ
same,Solubility (film-forming method) Acetonitrile,[3],X-Δ
same,Solubility (film-forming method) Ethyl acetate,[3],X-Δ
same,Solubility (film-forming method) Methanol,[3],X-Δ
same,Solubility (film-forming method) THF,[3],X-Δ
same,Solubility (film-forming method) Toluene,[3],X-Δ
same,Solubility (dissolution method) Acetone,[1],◯◯ (Become uniform and transparent at a compound concentration of 20% or more)
same,Solubility (dissolution method) Acetonitrile,[1],X (Not become uniform and transparent even at a compound concentration of 1%)
same,Solubility (dissolution method) Ethyl acetate,[1],◯ (Become uniform and transparent at a compound concentration of 10%)
same,Solubility (dissolution method) Methanol,[1],X (Not become uniform and transparent even at a compound concentration of 1%)
same,Solubility (dissolution method) THF,[1],◯◯ (Become uniform and transparent at a compound concentration of 20% or more)
same,Solubility (dissolution method) Toluene,[1],◯◯ (Become uniform and transparent at a compound concentration of 20% or more)
same,Solubility (dissolution method) Water,[1],X (Not become uniform and transparent even at a compound concentration of 1%)

# From US9499466B2, “Diene-based carboxylate anion and salt thereof, and polymerizable or curable composition thereof” (NIPPON SHOKUBAI CO., LTD., priority 2010, dated 2016)
